Laboratory results: patent publication US11035008B2, “Biomarkers for cancer” (BERGENBIO ASA, priority 2015, dated 2021)

Assays:
MOLM13 cells = assay: IC50 of BGB324 by resazurin assay, MOLM13; type: cell-based; conditions: Homo sapiens, MOLM-13, MOLM13 (responder)
Description: The diversity of AML cells and their responses was investigated using a panel of AML cell lines and assessing their responses after BGB324-treatment.

pAkt(S473) = pAkt(S473) by flow cytometry in MOLM13 cells (Example 1); type: cell-based, human
Procedure: Staining of Cells for Flow Cytometry, General Protocol: • Live cells were centrifuged at 300 G for 5 minutes, washed once with PBS and centrifuged again. Cells were then fixed in 4% PFA in PBS for 10 minutes at 37° C., and resuspended in PBS. Unless processed immediately, samples were at this point stored in PBS at 4° C. (up to three weeks) or at −80° C. (for long-term storage). If intracellular epitopes were stained, cells were permebealized in 90% MeOH for 30 minutes on ice. Unless processed immediately, samples were also be stored in 90% MeOH at −20° C. for up to two months. • Further staining procedure (permebealized or non-permebealized cells): • Cells were washed 1× in PBS and blocked in blocking buffer; either PBS+0.5% BSA or PBS+1:1000 Octagam (5 mg/ml) for 15 minutes at room temperature. Thereafter, cells were incubated with primary AB at the indicated dilutions in incubation buffer (IB, PBS+0.5% BSA) for 1 hour at room temperature. Cells were then washed 3× with IB and incubated with secondary AB (conjugated to a fluorescent flurophore) at 1:1000 dilution in IB for 30 minutes at room temperature. Finally, cells were washed 3× in IB and resuspended in PBS. Cells were analyzed immediately, or stored for up to 24 hours at 4° C. before analysis. • Analysis of cells was done on a BD LSR Fortessa or a BD C6 Accuri flow cytometer, and further processing was done using FlowJo v.7.6. • All incubation steps (but not storage) were done on a spinning wheel or gentle shaker.
MOLM13 cells were treated with BGB324 at different doses, and phosphorylation of Akt at the S473 phosphorylation site was assessed using a pAkt (S473) XP antibody from Cell Signaling Technology (#4060, BGB #109). Due to previous experience using this AB for flow, the AB was not titrated, but used at the concentration recommended by the manufacturer for flow cytometry.
MOLM13 cells were cultured in starvation medium (RPMI, 0.1% FBS) over night, pre-treated with BGB324 at 3 μM for 20 minutes, and thereafter stimulated with 10% FBS for 20 minutes (+/−BGB324) to induce Akt phosphorylation. […]

SLFN11 = assay: Microarray analysis of xenograft material, SLFN11 transcript; type: in vivo, mice
Description: Slfn11 was included in the biomarker panel following microarray analysis of Mv4-11 and MOLM13 xenograft material after BGB324-treatment.

PHGDH = PHGDH by western blot in Mv4-11 subcutaneous xenograft tumours; type: in vivo, mice; conditions: for PHGDH in tumour lysates (western blot): Mv4-11 sub-q
Procedure: Western Blot, General Protocol: • For western blot analysis, cells were lysed on ice using NP-40 lysis buffer with protease- and phosphatase inhibitors. Total protein concentration in lysates was measured using a BCA protein assay kit following the manufacturers instructions. 10% NuPAGE® Bis-Tris precast gels were loaded with 30-50 μg of protein in each well diluted in sample buffer and antioxidant. A 1:1 mix of MagicMark™ XP Western Protein Standard (Invitrogen) and SeeBlue® Plus 2 Pre-Stained Standard was used as protein standard. Gels were run at 50V for 20 min, then at 100V for 1 h 30 min. Blotting was done on ice for 1 h 30 min at 100V onto PVDF (pre-activated with MeOH) or nitrocellulose membranes. Membranes were washed in TBS-0.1% Tween-20 (TBS-T), and blocked in TBS-T 5% BSA for at least 1 h at RT. Primary ABs were added at 1:1000 in TBS-T 5% BSA (rabbit-anti-actin AB was added at 1:2000) in TBS-T 5% BSA, and membranes were incubated over night at 4° C. Membranes were then washed 3× in TBS-T, and incubated in HRP-conjugated secondary ABs at 1:5000 dilution in TBS-T 5% milk for 45 min at RT. Membranes were developed for 1 min using ECL-reagents and imaged with chemiluminescence using a Molecular Imager ChemiDoc™ XRS (BioRad). • All incubation- and washing steps were done on a roller.
To validate the reduction of PHGDH in in vivo samples found by microarray, the PHGDH expression in tumour material from in vivo samples was investigated by western blot. […] Therefore, it was investigated at what time point PHGDH is reduced after treatment with a single high dose of BGB324 100 mg/kg.
Tumours where the mice had been treated with a single lower dose of BGB324, 50 mg/kg, were also examined (tumour material was harvested at different time points, from 4-72 hours).

pAkt = pAkt in CD33-positive cells, MOLM13 systemic xenograft model, flow cytometry; type: in vivo, mice; conditions: both tissues (spleens and bone marrows), 50 mg/kg for 4 days; change not significant
Procedure: Material from an in vivo MOLM13 systemic model was also evaluated by flow cytometry. Expression of the previously evaluated biomarkers was examined in cells isolated from bone marrows and spleens of animals with systemic AML disease (MOLM13, inoculated for 7 days prior to treatment) treated with BGB324 at 50 mg/kg for 4 days. The spleens analysed were from the same study that was analysed by microarray, as mentioned above. The bone marrows were from an identical study that was done at a later time point to get more material for flow analyses.
Cells isolated from spleens and bone marrows were assessed for phosphorylation of Erk, PLCγ1 and Akt, and expression of PHGDH and SLFN11. The samples were also co-stained with CD33, and biomarker expression was only evaluated in CD33-positive cells.

Nc1nc(Nc2ccc3c(c2)CC[C@@H](N2CCCC2)CC3)nn1-c1cc2c(nn1)-c1ccccc1CCC2 [BGB324, 1-(6,7-dihydro-5H-benzo[6,7]cyclohepta[1,2-c]pyridazin-3-yl)-N3-((7-(S)-pyrrolidin-1-yl)-6,7,8,9-tetrahydro-5H-benzo[7]annulene-2-yl)-1H-1,2,4-triazole-3,5-diamine] was tested. Which IC50 (MOLM13 cells) did it give?
Its IC50 is 450 nM.

And the “pAkt in shAxl-expressing cells” value (pAkt(S473); MOLM13 shAxl (Axl knockdown), 0.1-3 μM)?
Its value is “inhibition of pAkt was also seen”.

What about the “Akt(S473) phosphorylation” value (pAkt(S473); MOLM13 starved over night, 3 μM, presence and absence of 10% FBS) of the same molecule?
Its value is “potently inhibited”.

What about the pAkt dose-response (pAkt(S473); MOLM13 wt, shLuc, shAxl, 0.1-3 μM, starved and non-starved) of the same molecule?
Its pAkt dose-response is “potent dose-dependent reduction of pAkt”.

What about the “SLFN11 transcript (microarray)” value (SLFN11; MOLM13 systemic xenograft model) of the same molecule?
Its value is “not significantly reduced”.

What about the “SLFN11 transcript (microarray)” value (SLFN11; Mv4-11 subcutaneous xenograft, 14 days of treatment) of the same molecule?
Its value is “one of the most significantly downregulated transcripts”.

What about the “SLFN11 transcript (microarray)” value (SLFN11; Mv4-11 xenograft, single dose 100 mg/kg, 24 hours after treatment) of the same molecule?
Its value is “significantly downregulated”.

What about the “PHGDH in tumours (western blot)” value (PHGDH; Mv4-11, single dose 50 mg/kg, harvested 4-72 hours) of the same molecule?
Its value is “stable reduction of PHGDH was observed from 16 hours and onwards”.

What about the “PHGDH in tumours (western blot)” value (PHGDH; Mv4-11, single dose 100 mg/kg, 6 hours after treatment) of the same molecule?
Its value is “not 6 hours after treatment”.

And the “PHGDH in tumours (western blot)” value (PHGDH; Mv4-11, single dose 100 mg/kg, 8 hours after treatment)?
Its value is “reduction of PHGDH observed in three parallel tumours”.

And the “PHGDH in tumour lysates (western blot)” value (PHGDH; 25 mg/kg BID, 50 mg/kg BID or 50 mg/kg QD, 15 days)?
The value was “reduction of PHGDH was observed in most of the tumours”.

What about the “PHGDH in tumour lysates (western blot)” value (PHGDH; 100 mg/kg single dose, tumours harvested 6 h after dosing) of the same molecule?
The value was “only in one of two tumours”.

What about the pAkt (pAkt) of the same molecule?
The pAkt was “went down”.
